# Assay results from article PMC4871480, “A Miniaturized Screen of a Schistosoma mansoni Serotonergic G Protein-Coupled Receptor Identifies Novel Classes of Parasite-Selective Inhibitors” (PLoS Pathogens, 2016).
# “Also recorded” adds a separate entry of the source. Like-named read-outs stand apart in the source and are kept apart here.
# Experiments:
# Sm.5HTRL = Sm.5HTRL (Schistosoma mansoni, UniProt A0A173FEI8); assay: GloSensor cAMP assay in HEK293 cells expressing Sm.5HTRL; format: cell-based; conditions: for inhibition of 5-HT evoked cAMP generation through Sm.5HTRL: antagonists 10μM, 5-HT EC80 dose
# Chain of Sm.5HTRL (A0A173FEI8 entry or part of it): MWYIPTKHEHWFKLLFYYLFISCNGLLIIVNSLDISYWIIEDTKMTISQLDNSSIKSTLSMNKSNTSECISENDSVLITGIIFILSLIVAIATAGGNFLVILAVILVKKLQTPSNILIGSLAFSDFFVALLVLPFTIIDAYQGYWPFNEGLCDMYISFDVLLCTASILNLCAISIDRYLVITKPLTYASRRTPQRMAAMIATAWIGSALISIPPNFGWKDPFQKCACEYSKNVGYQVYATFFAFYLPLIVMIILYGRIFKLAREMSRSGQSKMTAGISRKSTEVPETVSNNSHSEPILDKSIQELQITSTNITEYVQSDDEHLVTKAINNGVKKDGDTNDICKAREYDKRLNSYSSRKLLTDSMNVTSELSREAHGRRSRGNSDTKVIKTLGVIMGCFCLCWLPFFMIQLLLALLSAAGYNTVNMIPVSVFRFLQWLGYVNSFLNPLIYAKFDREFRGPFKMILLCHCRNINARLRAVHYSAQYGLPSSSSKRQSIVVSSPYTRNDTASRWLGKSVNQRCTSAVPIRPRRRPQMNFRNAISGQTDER
# Protocol: (§1) HEK293 cells (ATCC CRL-1573.3) were cultured in DMEM supplemented with 10% fetal bovine serum (FBS), penicillin (100 units/ml), streptomycin (100 μg/ml), and L-glutamine (290 μg/ml). Cells were transiently transfected (ViaFect, Promega) as per the manufacturer’s protocol at a density of 2x10^6 cells per T-25 cell-culture flask. Cells were transfected with plasmids encoding GloSensor (Promega) and either Sm.5HTR (Smp_126730, GenBank accession number KF444051.1) or Sm.5HTRL (KX150867), bothGPCRs being codon optimized for mammalian expression, or Hs.5HT7a (GenBank accession number NM_000872.4, R&D Systems) subcloned into pCS2(-). Cell culture reagents were from Invitrogen. Epitope tagged constructs were used to verify expression, and untagged constructs used for all luminescence assays.
# (§2) For assays performed on adherent cells, HEK-293 cells were transferred one day post transfection to 96 well, solid white plates (Corning, cat # 3917) coated with 0.01% poly-L-lysine (Sigma Aldrich) at a density of 5 x 10^4 cells / well in DMEM supplemented with 1% dialyzed FBS (Gibco). After overnight culture (37°C/5% CO2), media was decanted and replaced with 100μL / well HBSS supplemented with 0.1% BSA, 20mM HEPES (pH 7.4) and GloSensor reagent. Plates were allowed to equilibrate at room temperature for two hours prior to performing luminescence assays (GloMax-Multi Detection System plate reader, Promega). Conditions for individual assays were described as per figure legends. The standard assay to detect changes in cAMP utilized the F22 sensor in media supplemented with IBMX (200μM). Ligands were added at a concentration of 20x per well for experiments (i.e. 5μl of drug solution added to 100μl of cells). […] For the resazurin reduction assay for cellular viability, cells were incubated with resazurin (final concentration, 10μM) and tested ligands with fluorescence measurements (560 nm excitation/590 nm emission) made at 1.5hr intervals.
# [1] = system: S. mansoni schistosomules; assay: Schistosomule contractility assay; format: in vivo, Schistosoma mansoni; conditions: exogenous addition, dose-dependent
# Protocol: Biomphalaria glabrata (M-line) snails exposed to Schistosoma mansoni miracidia (Strain PR-1) were obtained from BEI Resources (Cat. number NR-21961) and cercaria were shed following exposure to light (1.5 hours). Cercaria were manually transformed into schistosomula by vortexing (3 x 45 seconds, each separated by 3 minutes on ice) and tails were removed by gradient centrifugation (24ml Percoll, 4ml 10X EMEM, 1.5ml penicillin-streptomycin, 1ml of 1M HEPES in 0.85% NaCl, 9.5ml distilled water) at 500g/15min at 4°C. Supernatant containing tails was discarded, and schistosomules were resuspended in Basch media and incubated (37°C, 5% CO2) overnight before conducting mobility assays. For contractility experiments, somules were incubated in 5-HT free Basch media to resolve a basal contractility rate. […] Schistosomules were incubated in 24 well plates (~200 schistosomules / 0.5mL media per well) for 30 minutes (37°C/5% CO2) prior to acquiring videos of schistosome movement (1 minute recordings / well) using a Nikon Coolpix 5700 camera affixed to a Nikon Eclipse TS100 microscope (10x objective). The WrmTrck plugin for ImageJ was used to quantify worm mobility. Briefly, the major axis of each schistosomule body length was extracted from the raw output of WrmTrck and an average length was determined for the duration of the recording. Contractions were quantified by determining the number of episodes during which the worm body length deviated from the average by over 20%. S. mansoni protocols were approved by the Iowa State University Institutional Biosafety Committee.
# adult schistosomes = assay: Adult schistosome mobility assay; format: in vivo, Schistosoma mansoni; conditions: 5-HT application
# Protocol: Female Swiss Webster mice exposed to Schistosoma mansoni cerceria (Strain PR-1) at 5–7 weeks old were obtained from BEI Resources (Cat. number NR-34792) and sacrificed 6–8 weeks post-infection. Mature S. mansoni were harvested from the mesenteric vasculature by portal perfusion. Briefly, mice were anesthetized in a CO2 chamber and sacrificed by cervical dislocation. Mice were perfused with sodium citrate (25mM) and adult schistosomes were harvested from the mesenteric veins. Schistosomes were washed in RPMI media containing penicillin (1000 units/mL), streptomycin (1000 μg/mL) and 25mM HEPES, then transferred to RPMI media supplemented with 2mM glutamine and 5% heat inactivated FBS. Worms were incubated overnight at 37°C, 5% CO2 before conducting assays. Recordings of adult schistosome movement were captured using a Zeiss Discovery v20 stereomicroscope and a QiCAM 12-bit cooled color CCD camera. Videos were acquired at a rate of four frames per second for one minute. Recordings of female worms were acquired at 7.6x magnification, 30 mm field of view and recordings of male worms were acquired at a 5.1x magnification, 45 mm field of view. Analysis was performed in ImageJ as described previously. Briefly, image (.tiff) stacks of each recording were imported and processed by converting to binary format so that pixel measurements represent area of the worms’ bodies. Mobility was quantified by measuring the difference in pixels resulting from subtracting the value of one frame (n) from those of the next frame in the sequence (n+1). This difference was expressed as a percentage of the pixels in the initial frame (n), providing a measurement of the worms’ movement over a period of 0.25 seconds. This calculation was performed for each frame in the video, and the results were averaged over the length of the recording. Values reported represent the mean (±) standard error of at least three independent experiments. Animal work was carried out with the oversight and approval of the Laboratory Animal Resources facility at the Iowa State University College of Veterinary Medicine.
# Sm.5HTR [2] = target: T1, Sm.5HTR (Schistosoma mansoni, UniProt G4V5G4); assay: cell-based; format: cell-based; conditions: for ligand type at Sm.5HTR: Fig 5F; for agonist efficacy at Sm.5HTR: dose response, Fig 5A; for activity at Sm.5HTR: antagonist/modulator screening; for GPCR inhibition profile compared with rotundine: Sm.5HTR vs Hs.5HT7R, Fig F in S1 Text; for Emax: HEK293, read-out: 5-HT Emax
# T1 sequence (G4V5G4 entry or part of it): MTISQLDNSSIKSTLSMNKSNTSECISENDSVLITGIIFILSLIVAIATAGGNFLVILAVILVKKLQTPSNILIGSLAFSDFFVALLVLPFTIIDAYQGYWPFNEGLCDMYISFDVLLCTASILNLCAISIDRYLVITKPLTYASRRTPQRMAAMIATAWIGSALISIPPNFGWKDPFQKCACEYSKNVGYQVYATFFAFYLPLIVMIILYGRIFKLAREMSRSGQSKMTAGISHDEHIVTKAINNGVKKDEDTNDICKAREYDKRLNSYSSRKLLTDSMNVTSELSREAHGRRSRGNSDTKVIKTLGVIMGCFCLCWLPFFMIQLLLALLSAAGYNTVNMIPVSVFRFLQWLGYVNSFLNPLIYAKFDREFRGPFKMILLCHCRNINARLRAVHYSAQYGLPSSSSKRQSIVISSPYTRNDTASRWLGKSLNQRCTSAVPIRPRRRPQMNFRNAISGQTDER
# Protocol: as §1, §2
# Hs.5HT7R = target: T2, Hs.5HT7R (Homo sapiens, UniProt P34969); assay: GloSensor cAMP assay in HEK293 cells expressing Hs.5HT7R; format: cell-based; conditions: Fig 4
# T2 construct: host or cells: HEK293 (ATCC CRL-1573.3), transient transfection, pCS2(-) vector
# T2 sequence (P34969 1-445 isoform P34969-2): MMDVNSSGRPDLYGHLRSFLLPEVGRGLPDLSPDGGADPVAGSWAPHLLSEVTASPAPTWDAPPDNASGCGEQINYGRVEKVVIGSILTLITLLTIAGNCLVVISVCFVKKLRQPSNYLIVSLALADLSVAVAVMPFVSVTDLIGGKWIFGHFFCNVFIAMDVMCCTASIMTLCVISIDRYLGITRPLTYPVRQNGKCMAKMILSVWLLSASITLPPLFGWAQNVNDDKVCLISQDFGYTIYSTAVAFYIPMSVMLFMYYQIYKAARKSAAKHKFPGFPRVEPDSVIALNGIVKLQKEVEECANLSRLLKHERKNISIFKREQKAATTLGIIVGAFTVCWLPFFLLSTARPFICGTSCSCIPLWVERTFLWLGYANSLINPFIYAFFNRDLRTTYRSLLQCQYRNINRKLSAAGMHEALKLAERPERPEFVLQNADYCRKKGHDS
# Protocol: as §1, §2
# Sm.5HTR [3] = target: T1, Sm.5HTR; assay: Antagonist washout (inactivating antagonist) GloSensor assay on suspension cells; format: cell-based; conditions: for inhibition of Sm.5HTR after antagonist wash-out: 10μM for 30 mins, washout, 5-HT response 1hr later
# Protocol: To test putative irreversible antagonists, assays on suspension cells were performed one day post transfection. […] Compounds were added at 10 μM, and after 30 minute incubation at room temperature cells were centrifuged (300 RCF, 5 minutes) and resuspended in fresh media. This wash step was repeated, and cells were resuspended in HBSS supplemented with 0.1% BSA, 20mM HEPES and GloSensor reagent. Cells were gently rotated to prevent aggregation and settling over the course of the two hour equilibration period, after which time they were transferred to 96 well plates at a density of 8 x 10^4 cells / 100μL per well and assays described for adherent cells.
# [4] = IC50 (Hs.5HT7R) / IC50 (Sm.5HTR)
# [5] = EC50 (agonist, cAMP generation), F22 sensor with IBMX
smiles,measurement,setting,value
"NCCc1c[nH]c2ccc(O)cc12 [5-HT, Serotonin]",EC50,"Sm.5HTRL; F22 sensor with IBMX, read-out: EC50 (cAMP generation, Sm.5HTRL)",0.2 ± 0.03 µM
same,EC80,Sm.5HTRL; HEK293,0.8 µM
same,greater sensitivity of Sm.5HTRL vs Sm.5HTR,Sm.5HTRL; ratio of 5-HT EC50 values,~ 10 fold
same,effect on basal contractile rate of schistosomules,[1],increase in the basal contractile rate
same,effect on movement of unpaired male and female worms,adult schistosomes,significantly increased the movement
"CCN(CC)C(=O)[C@@H]1C=C2c3cccc4[nH]cc(c34)C[C@H]2N(C)C1 [LSD, lysergic acid diethylamide]",ligand type at Sm.5HTR,Sm.5HTR [2],Antagonist
same,Kb,"Sm.5HTR [2]; KB (affinity constant, Schild regression), right-shift of 5-HT dose-response",0.629 µM
same,inhibition of 5-HT evoked cAMP generation,Sm.5HTR [2]; at higher concentrations (>10μM),almost complete inhibition
same,agonist efficacy at Sm.5HTR,Sm.5HTR [2],no efficacy
same,Kb,"Sm.5HTR [2]; pKB ± S.E.M, Schild regression",0.631 µM
"O=C(C1CCCCC1)N1CC(=O)N2CCc3ccccc3C2C1 (stereo not shown) [Praziquantel, praziquantel]",ligand type at Sm.5HTR,Sm.5HTR [2],Inactive
same,activity at Sm.5HTR,Sm.5HTR [2]; listed as PZQ,did not reveal any modulation of receptor activity; also recorded: did not yield any effect
CC1CCN(CC[C@H]2CCCN2S(=O)(=O)c2cccc(O)c2)CC1 [SB269970],activity at Sm.5HTR,Sm.5HTR [2],modest effects
same,activity at Sm.5HTR,Sm.5HTR [2]; listed as SB 269970,completely lacked activity
O=S(=O)(c1ccccc1)c1cnc2c(N3CCNCC3)cccc2c1 [SB742457],activity at Sm.5HTR,Sm.5HTR [2],completely lacked activity; also recorded: modest effects
same,inhibition of Hs.5HT7R,Hs.5HT7R,potent inhibitors
COc1cc2nc(N(C)CCCNC(=O)C3CCCO3)nc(N)c2cc1OC (stereo not shown) [alfuzosin],selectivity for Sm.5HTR over Hs.5HT7R,Sm.5HTR [2]; [4],clear selectivity for Sm.5HTR; also recorded: clear bias toward Sm.5HTR
same,inhibition of 5-HT evoked cAMP generation through Sm.5HTRL,Sm.5HTRL,inhibited 5-HT evoked cAMP generation
CCN1CCCC1CNC(=O)c1cc(S(=O)(=O)CC)c(N)cc1OC (stereo not shown) [amisulpride],activity at Sm.5HTR,Sm.5HTR [2],modest effects
CNCC[C@@H](Oc1ccccc1C)c1ccccc1 [atomoxetine],selectivity for Sm.5HTR over Hs.5HT7R,Sm.5HTR [2],clear selectivity for Sm.5HTR; also recorded: preferential selectivity toward Sm.5HTR
same,inhibition of 5-HT evoked cAMP generation through Sm.5HTRL,Sm.5HTRL,inhibited 5-HT evoked cAMP generation
COc1ccc2cc3[n+](cc2c1OC)CCc1cc2c(cc1-3)OCO2 [berberine],GPCR inhibition profile compared with rotundine,Sm.5HTR [2],decreased potency and selectivity for Sm.5HTR
CN1CCN(C2=Nc3cc(Cl)ccc3Nc3ccccc32)CC1 [clozapine],acute inhibition of 5-HT (10μM) response at Sm.5HTR,Sm.5HTR [2],Inhibition of 5-HT response
CN1CCC(=C2c3ccccc3C=Cc3ccccc32)CC1 [cyproheptadine],acute inhibition of 5-HT (10μM) response at Sm.5HTR,Sm.5HTR [2],acutely inhibited
same,time to full reversal of inhibition after ligand removal,"Sm.5HTR [3]; 10μM, 30 mins preincubation",≤ 1 h
CN1C[C@H](C(=O)N[C@]2(C)O[C@@]3(O)[C@@H]4CCCN4C(=O)[C@H](Cc4ccccc4)N3C2=O)C[C@@H]2c3cccc4[nH]cc(c34)C[C@H]21 [dihydroergotamine],EC50,Sm.5HTR [2]; [5],0.315 µM
same,ligand type at Sm.5HTR,Sm.5HTR [2],Agonist
same,Emax,Sm.5HTR [2],52 ± 1%
same,EC50,Sm.5HTR [2]; pEC50 ± S.E.M,0.316 µM
CN1C[C@H](C(=O)N[C@]2(C)O[C@@]3(O)[C@@H]4CCCN4C(=O)[C@H](Cc4ccccc4)N3C2=O)C=C2c3cccc4[nH]cc(c34)C[C@H]21 [ergotamine],EC50,Sm.5HTR [2]; [5],0.232 µM
same,ligand type at Sm.5HTR,Sm.5HTR [2],Agonist
same,Emax,Sm.5HTR [2],78 ± 2%
same,EC50,Sm.5HTR [2]; pEC50 ± S.E.M,0.229 µM
CNCCC(Oc1ccc(C(F)(F)F)cc1)c1ccccc1 (stereo not shown) [fluoxetine],selectivity for Sm.5HTR over Hs.5HT7R,Sm.5HTR [2]; [4],preferential selectivity toward Sm.5HTR
CN1C[C@H](CNC(=O)OCc2ccccc2)C[C@@H]2c3cccc4c3c(cn4C)C[C@H]21 [metergoline],ligand type at Sm.5HTR,Sm.5HTR [2],Antagonist
same,Kb,"Sm.5HTR [2]; Schild regression, read-out: pKB ± S.E.M (converted)",4.57 µM
same,agonist efficacy at Sm.5HTR,Sm.5HTR [2],no efficacy
same,acute inhibition of 5-HT (10μM) response at Sm.5HTR,"Sm.5HTR [2]; drug 10μM, preincubation",Inhibition of 5-HT response
same,Kb,"Sm.5HTR [2]; right-shift of 5-HT dose-response, read-out: KB (affinity constant, Schild regression)",4.53 µM
same,inhibition of Sm.5HTR after antagonist wash-out,Sm.5HTR [3],long-lasting inhibition
CSc1ccc2c(c1)C(N1CCN(C)CC1)Cc1ccccc1S2 (stereo not shown) [methiothepin],acute inhibition of 5-HT (10μM) response at Sm.5HTR,"Sm.5HTR [2]; drug 10μM, preincubation",antagonism of 5-HT stimulated cAMP generation; also recorded: Inhibition of 5-HT response
same,inhibition of Sm.5HTR after antagonist wash-out,Sm.5HTR [3],long-lasting inhibition
same,potency for Sm.5HTR inhibition after washout,"Sm.5HTR [3]; titration, Fig 6E",most potent
COc1cc2c(cc1OC)-c1cc3ccc(OC)c(OC)c3c[n+]1CC2 [palmatine],GPCR inhibition profile compared with rotundine,Sm.5HTR [2],decreased potency and selectivity for Sm.5HTR
Cc1nc2n(c(=O)c1CCN1CCC(c3noc4cc(F)ccc34)CC1)CCCC2 [risperidone],acute inhibition of 5-HT (10μM) response at Sm.5HTR,Sm.5HTR [2],Inhibition of 5-HT response
same,inhibition of Sm.5HTR after antagonist wash-out,Sm.5HTR [3],long-lasting inhibition
